Target: Tyrosine-protein kinase BTK (Homo sapiens, UniProt Q06187)
Assay: Biochemical kinase assay wt-BTK
Method: To determine the inhibitory activity of compounds on wt-BTK enzyme activity, the IMAP assay (Molecular Devices) was used. Compounds were serially diluted in dimethylsulfoxide (DMSO) and subsequently in 4% DMSO in IMAP reaction buffer, which consists of 10 mM Tris-HCl, pH 15 7.5, 10 mM MgCl2, 0.01% Tween-20, 0.1% NaN3 and 1 mM freshly prepared dithiotreitol (DTT). Compound solution was mixed with an equal volume of full-length wt-BTK enzyme (Carna Biosciences, cat. no. 08-180) in IMAP reaction buffer. After pre-incubation of 1 hour in the dark at room temperature, fluorescein-labeled MBP-derived substrate peptide (Molecular Devices, cat. no. RP 7123) was added, followed by ATP to start the reaction. Final enzyme concentration was 1.2 nM, final substrate concentration 50 nM, and final ATP concentration was 4 μM. The reaction was allowed to proceed for 2 hours at room temperature in the dark. The reaction was stopped by quenching with IMAP progressive binding solution according to the protocol of the manufacturer (Molecular Devices). Fluorescein polarization was measured on an Envision multimode reader (Perkin Elmer, Waltham, MA, U.S.A.).

Sequence of Tyrosine-protein kinase BTK (Q06187 whole entry): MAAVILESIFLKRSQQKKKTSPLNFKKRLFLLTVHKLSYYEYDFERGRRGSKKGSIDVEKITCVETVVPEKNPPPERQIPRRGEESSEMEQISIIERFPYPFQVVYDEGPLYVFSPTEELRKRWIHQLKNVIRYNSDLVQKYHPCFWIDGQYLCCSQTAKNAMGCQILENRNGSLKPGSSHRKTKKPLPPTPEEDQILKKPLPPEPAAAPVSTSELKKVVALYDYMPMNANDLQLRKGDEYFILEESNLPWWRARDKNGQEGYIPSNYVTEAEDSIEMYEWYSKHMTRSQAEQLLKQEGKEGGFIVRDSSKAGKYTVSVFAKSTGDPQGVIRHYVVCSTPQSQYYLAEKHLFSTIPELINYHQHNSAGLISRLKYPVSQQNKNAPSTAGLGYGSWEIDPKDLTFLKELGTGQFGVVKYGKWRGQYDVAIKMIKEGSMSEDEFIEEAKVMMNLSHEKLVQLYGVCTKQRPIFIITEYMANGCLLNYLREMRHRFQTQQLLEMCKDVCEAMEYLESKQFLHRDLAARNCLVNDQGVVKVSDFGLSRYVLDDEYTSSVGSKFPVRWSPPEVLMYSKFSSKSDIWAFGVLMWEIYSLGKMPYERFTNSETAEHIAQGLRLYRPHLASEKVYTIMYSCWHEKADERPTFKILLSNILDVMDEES

## C[C@@H]1CCn2nc(-c3ccc(C(=O)Nc4cc(C(F)(F)F)ccn4)cc3)c3c(N)ncc(c32)/C=C/CCCCC(=O)N1 [US20250074911, Example 54]
  IC50: < 5 nM
